According to US4837221A, “Methods of treating tumors susceptible to necrosis” (Efamol Ltd., priority 1984, dated 1989):
“And” between values parts separate entries of the source, which are not always exact repeats. Equal values may be shown once. “Also recorded” adds a separate entry of the source.

Tests used:
[1] = test system: transplantable mouse tumour originating in plasma cells; experiment: Depth of tumour necrosis after photosensitising drug and illumination (10J/cm^2) in mice; type: in vivo; conditions: for Necrosis (after 10J/cm^2), depth: ± S.E.M.
[2] = test system: depilated skin; experiment: Skin photosensitisation: increase in skin thickness after illumination; type: in vivo, mouse
Protocol: The increase in skin thickness was measured 4 hours after illumination.

[3] = test system: cranium (brain) of mice; experiment: Cerebral photosensitisation: deaths within 48 hours after white light to the cranium; type: in vivo, mouse; conditions: 0.033 μM/kg i.v., 24 hours later 20J/cm^2 white light to cranium
Protocol: Deaths within 48 hours (due to acute cerebral oedema) were: […]

[4] = Solubility; type: physicochemical
[5] = test system: brain vascular lining; experiment: Cerebral photosensitisation: Evans blue in the brain after white light to the cranium; type: in vivo, mouse; conditions: 0.033 μM/kg i.v., 20J/cm^2 white light; dye 4 hours after exposure, measured 1 hour later; groups of 5 mice
Protocol: Normally, very little is found, and this is largely dye still circulating in the blood 1 hour after injection, and not in the brain substance itself. An increase is produced by agents that damage the brain vascular lining, allowing dye to enter the brain substance.

[6] = test system: transplantable mouse tumour originating in plasma cells; experiment: Depth of tumour necrosis after photosensitising drug and illumination (10J/cm^2) in mice; type: in vivo; conditions: for Depths of tumour necrosis: 10J/cm^2 at 660nm, individual values; for effectiveness in DMSO versus alkali (in words): DMSO compared with alkali (NaOH); for effectiveness as photosensitiser for tumour tissue (in words): mouse assay
Protocol: The photosensitising drug is given intravenously in aqueous medium or intraperitoneally in DMSO, the tumour exposed to light at the appropriate wavelength and the depth of tumour necrosis measured. […] Results are shown in graph. The relative potency is determined by comparing amounts of drugs required to produce equal effects.
A preliminary comparison was made. […] The light dose was 10J/cm^2 at 660nm.

## Oc1ccc(-c2c3nc(c(-c4ccc(O)cc4)c4ccc([nH]4)c(-c4ccc(O)cc4)c4nc(c(-c5ccc(O)cc5)c5ccc2[nH]5)C=C4)C=C3)cc1 [Na-HK7]
[1]; 25 μM/kg, DMSO, 656 nm
  Necrosis (after 10J/cm^2), depth: 2.28 ± 0.47 mm
[1]; 50 μM/kg, DMSO, 656 nm
  Necrosis (after 10J/cm^2), depth: 2.80 ± 0.12 mm and 3.79 ± 0.29 mm
[1]; 50 μM/kg, NaOH, 664 nm
  Necrosis (after 10J/cm^2), depth: 3.15 ± 0.83 mm
[1]; 12.5 μm/kg
  necrosis depth: below 1.0 mm

## Oc1ccc(-c2c3nc(c(-c4ccc(O)cc4)c4ccc([nH]4)c(-c4ccc(O)cc4)c4nc(c(-c5ccc(O)cc5)c5ccc2[nH]5)C=C4)C=C3)cc1 [HK7, 5,10,15,20-tetra (4-hydroxyphenyl) porphyrin]
[2]; 1 week, equimolar doses, 10J/cm^2, HK7 vs HpD
  skin photosensitisation, by 1 week: little difference
[2]; 2 weeks, maximum dose, 10J/cm^2
  skin photosensitisation, by 2 weeks: no longer sensitises to this dose of light
[2]; 1 day, equimolar doses, 10J/cm^2 (625nm HpD, 656nm HK7)
  skin photosensitisation, 1 day after porphyrin injection: more potent skin sensitiser than HpD
[2]; HK7 compared with HpD, overall
  skin photosensitisation, potency and persistence: less persistant than that caused by HpD; also recorded: more potent skin photosensitiser than HpD, but that the effect is more transient
[3]
  Deaths within 48 hours (due to acute cerebral oedema): 0/5
[4]
  solubility in neutral aqueous media: relatively insoluble in neutral aqueous media
[5]
  amount of Evans blue in the brain: 23.6 ± 3.65 μg dye/brain
[6]; 33 μM/kg, NaOH-DMSO
  Depths of tumour necrosis: 0.5 mm and 1.5 mm and 4.5 mm
[6]; 67 μM/kg, DMSO
  Depths of tumour necrosis: 4 mm and 5 mm and 6 mm
[6]
  effectiveness in DMSO versus alkali (in words): rather more effective administered in DMSO than in alkali
  effectiveness as photosensitiser for tumour tissue (in words): more effective photosensitiser for tumour tissue in animal assay than is HpD
[1]; 6.25 μM/kg, DMSO, 656 nm
  Necrosis (after 10J/cm^2), depth: 1.17 ± 0.31 mm and 0.85 ± 0.38 mm
[1]; 12.5 μM/kg, DMSO, 656 nm
  Necrosis (after 10J/cm^2), depth: 2.86 ± 0.26 mm and 2.50 ± 0.52 mm
[1]; 12.5 μM/kg, NaOH, 654 nm
  Necrosis (after 10J/cm^2), depth: 2.40 ± 0.10 mm
[1]; 25 μM/kg, DMSO, 656 nm
  Necrosis (after 10J/cm^2), depth: 3.54 ± 0.48 mm and 2.63 ± 0.56 mm
[1]; 25 μM/kg, NaOH, 654 nm
  Necrosis (after 10J/cm^2), depth: 3.64 ± 0.39 mm
[1]; 25 μM/kg, NaOH, 669 nm
  Necrosis (after 10J/cm^2), depth: 2.75 ± 0.25 mm and 2.38 ± 0.24 mm
[1]; 50 μM/kg, DMSO, 656 nm
  Necrosis (after 10J/cm^2), depth: 5.06 ± 0.48 mm
[1]; 50 μM/kg, NaOH, 669 nm
  Necrosis (after 10J/cm^2), depth: 3.32 ± 0.63 mm and 3.25 ± 0.37 mm
[1]; 6.25 μm/kg
  effectiveness in tumour necrosis (in words): reasonably effective
[1]; 24 hours after dose, see graph
  tumour sensitisation at the dose of the cerebral test (in words): substantial tumour sensitisation
[1]; i.v., 10J/cm^2, 630nm HpD, 658nm HK7
  amount of drug required to produce equal effect (HK7 vs HpD): ~0.0125 µM/kg

## O=S(=O)(O)c1ccc(-c2c3nc(c(-c4ccc(S(=O)(=O)O)cc4)c4ccc([nH]4)c(-c4ccc(S(=O)(=O)O)cc4)c4nc(c(-c5ccc(S(=O)(=O)O)cc5)c5ccc2[nH]5)C=C4)C=C3)cc1 [tetra-(p-hydroxysulphonyl phenyl) porphyrin, reference compound]
[1]; molar equivalent dose to HpD 67 μmol/kg, saline, 550 nm
  necrosis depth: 0.30±0.11 mm

## Oc1ccc(-c2c3nc(c(-c4ccc(O)cc4)c4ccc([nH]4)c(-c4ccc(O)cc4)c4nc(c(-c5ccc(O)cc5)c5ccc2[nH]5)C=C4)C=C3)cc1 [HK7.4EtOH]
[6]; 33 μM/kg, NaOH-DMSO
  Depths of tumour necrosis: 0.25 mm and 0.5 mm and 0.75 mm and 2 mm
[6]; 67 μM/kg, DMSO
  Depths of tumour necrosis: 3.75 mm and 4 mm (2×) and 5 mm

## Oc1ccccc1-c1c2nc(c(-c3ccccc3O)c3ccc([nH]3)c(-c3ccccc3O)c3nc(c(-c4ccccc4O)c4ccc1[nH]4)C=C3)C=C2 [ortho-HK7, 5,10,15,20-TETRA(o-HYDROXYPHENYL) PORPHYRIN]
[1]; 6.25 μM/kg, DMSO, 648 nm
  Necrosis (after 10J/cm^2), depth: 2.45 ± 0.28 mm
[1]; 12.5 μM/kg, DMSO, 648 nm
  Necrosis (after 10J/cm^2), depth: 3.03 ± 0.29 mm
[1]; 25.0 μM/kg, DMSO, 648 nm
  Necrosis (after 10J/cm^2), depth: 4.21 ± 0.32 mm and 3.21 ± 0.56 mm
[1]; 50.0 μM/kg, DMSO, 648 nm
  Necrosis (after 10J/cm^2), depth: 4.25 ± 0.50 mm

## Oc1ccc(-c2c3nc(c(-c4ccc(O)cc4)c4ccc([nH]4)c(-c4ccc(O)cc4)c4nc(c(-c5ccc(O)cc5)c5ccc2[nH]5)C=C4)C=C3)cc1 [K-HK7]
[1]; 12.5 μM/kg, DMSO, 656 nm
  Necrosis (after 10J/cm^2), depth: 2.50 ± 0.44 mm
[1]; 25 μM/kg, DMSO, 656 nm
  Necrosis (after 10J/cm^2), depth: 3.32 ± 0.59 mm
[1]; 50 μM/kg, NaOH, 654 nm
  Necrosis (after 10J/cm^2), depth: 5.06 ± 0.12 mm

## Oc1cccc(-c2c3nc(c(-c4cccc(O)c4)c4ccc([nH]4)c(-c4cccc(O)c4)c4nc(c(-c5cccc(O)c5)c5ccc2[nH]5)C=C4)C=C3)c1 [meta-HK7]
[6]
  effectiveness in DMSO versus alkali (in words): equally effective in both
  effectiveness as photosensitiser for tumour tissue (in words): most active compound found
[1]; 1.56 μM/kg, DMSO, 648 nm
  Necrosis (after 10J/cm^2), depth: 0.65 ± 0.22 mm
[1]; 6.25 μM/kg, DMSO, 648 nm
  Necrosis (after 10J/cm^2), depth: 3.53 ± 0.49 mm and 2.88 ± 0.9 mm and 3.86 ± 0.18 mm
[1]; 6.25 μM/kg, NaOH, 648 nm
  Necrosis (after 10J/cm^2), depth: 3.78 ± 0.36 mm and 3.64 ± 0.34 mm
[1]; 12.5 μM/kg, DMSO, 648 nm
  Necrosis (after 10J/cm^2), depth: 4.44 ± 0.35 mm and 4.5 ± 0.5 mm
[1]; 12.5 μM/kg, NaOH, 648 nm
  Necrosis (after 10J/cm^2), depth: 3.25 ± 0.33 mm
[1]; 25.0 μM/kg, DMSO, 648 nm
  Necrosis (after 10J/cm^2), depth: 5.37 ± 0.55 mm
[1]; 50.0 μM/kg, DMSO, 648 nm
  Necrosis (after 10J/cm^2), depth: 4.63 ± 0.64 mm
[1]; 1.56 μm/kg
  effectiveness in tumour necrosis (in words): some effect
[1]; 3.12 μm/kg
  effectiveness in tumour necrosis (in words): effective

## Oc1ccc(-c2c3nc(c(-c4ccc(O)cc4)c4ccc([nH]4)c(-c4ccc(O)cc4)c4nc(c(-c5ccc(O)cc5)c5ccc2[nH]5)C=C4)C=C3)cc1 [Li-HK7]
[1]; 25 μM/kg, DMSO, 656 nm
  Necrosis (after 10J/cm^2), depth: 3.31 ± 0.40 mm and 3.00 ± 0.72 mm and 3.00 ± 0.51 mm
[1]; 50 μM/kg, DMSO, 656 nm
  Necrosis (after 10J/cm^2), depth: 2.46 ± 0.38 mm and 3.50 ± 0.41 mm
[1]; 12.5 μm/kg
  necrosis depth: below 1.0 mm
